In US8946154B2 (BCN Peptides, S.A., priority 2009, dated 2015):
Numbered stars: 1 amine (or outer) side, 2 acyl side, 3 side chain; on linkers, the order of the positions; unused ones are H or OH. Bridge positions count the residues as written; N and C are the ends. Square brackets hold non-standard residues; d marks the D form. Side chains are listed from the residue outwards. Peptide text beside a SMILES is read from it. * marks the point of attachment. Ethylenediamine = C(CN[*:2])N[*:1]; Hyp = O=C(O)[C@@H]1C[C@@H](O)CN1; Phg = N[C@H](C(=O)O)c1ccccc1; CO = O=C([*:1])[*:2]; Bn = c1ccc(C*)cc1

Assays:
sstr3 receptor = sstr3 receptor (Homo sapiens, UniProt P32745); conditions: literature, background; cited from earlier work
sstr2 receptor = sstr2 receptor (Homo sapiens, UniProt P30874); conditions: literature, background; cited from earlier work
sstr1 receptor = sstr1 receptor (Homo sapiens, UniProt P30872); conditions: literature, background; cited from earlier work
sstr4 receptor = sstr4 receptor (Homo sapiens, UniProt P31391); conditions: literature, background; cited from earlier work
[1] = Stability in 90% human serum
Experimental: The new compounds were incubated with 90% human serum at 37° C. Aliquots were extracted at different incubation times. Acetonitrile was added to precipitate the proteins from the serum, it was centrifuged and the supernatant was filtered and injected in the RP-HPLC (Grad: 20-80% B in 30 min, B=0.07% TFA in acetonitrile). The disappearance of the initial product was analyzed using the area corresponding to the initial product and the half-life time was calculated.

Sequence of sstr3 receptor (P32745 whole entry): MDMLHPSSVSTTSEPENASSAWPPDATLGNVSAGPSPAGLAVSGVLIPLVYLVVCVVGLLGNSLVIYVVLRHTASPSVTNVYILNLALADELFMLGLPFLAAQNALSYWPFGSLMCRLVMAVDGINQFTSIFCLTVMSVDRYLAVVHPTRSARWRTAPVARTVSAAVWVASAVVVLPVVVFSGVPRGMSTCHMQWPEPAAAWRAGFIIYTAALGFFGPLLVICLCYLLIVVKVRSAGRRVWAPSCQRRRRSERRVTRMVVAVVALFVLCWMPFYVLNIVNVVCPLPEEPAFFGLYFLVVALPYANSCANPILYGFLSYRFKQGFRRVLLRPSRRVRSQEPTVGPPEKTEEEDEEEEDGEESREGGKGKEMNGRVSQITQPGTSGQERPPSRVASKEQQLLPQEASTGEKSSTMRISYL
Sequence of sstr1 receptor (P30872 whole entry): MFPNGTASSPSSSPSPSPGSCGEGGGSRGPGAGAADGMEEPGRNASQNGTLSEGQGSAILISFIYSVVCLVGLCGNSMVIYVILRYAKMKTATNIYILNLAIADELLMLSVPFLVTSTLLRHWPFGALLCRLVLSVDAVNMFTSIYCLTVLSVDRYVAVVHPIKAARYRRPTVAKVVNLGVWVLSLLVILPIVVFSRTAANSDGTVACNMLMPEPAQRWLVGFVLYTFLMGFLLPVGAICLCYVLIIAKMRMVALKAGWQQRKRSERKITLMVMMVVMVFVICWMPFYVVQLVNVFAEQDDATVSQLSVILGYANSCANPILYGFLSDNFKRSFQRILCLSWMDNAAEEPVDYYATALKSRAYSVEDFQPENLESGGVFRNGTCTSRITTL
Sequence of sstr2 receptor (P30874 whole entry): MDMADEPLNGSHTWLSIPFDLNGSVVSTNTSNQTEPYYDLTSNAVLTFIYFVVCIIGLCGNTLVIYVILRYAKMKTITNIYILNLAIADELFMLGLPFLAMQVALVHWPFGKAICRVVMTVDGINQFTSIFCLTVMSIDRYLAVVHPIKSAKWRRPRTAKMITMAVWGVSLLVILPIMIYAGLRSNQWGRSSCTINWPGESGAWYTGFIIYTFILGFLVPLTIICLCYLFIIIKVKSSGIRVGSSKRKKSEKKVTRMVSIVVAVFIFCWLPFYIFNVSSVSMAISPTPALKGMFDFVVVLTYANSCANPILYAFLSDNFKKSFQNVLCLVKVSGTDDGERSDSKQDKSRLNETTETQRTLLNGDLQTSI
Sequence of sstr4 receptor (P31391 whole entry): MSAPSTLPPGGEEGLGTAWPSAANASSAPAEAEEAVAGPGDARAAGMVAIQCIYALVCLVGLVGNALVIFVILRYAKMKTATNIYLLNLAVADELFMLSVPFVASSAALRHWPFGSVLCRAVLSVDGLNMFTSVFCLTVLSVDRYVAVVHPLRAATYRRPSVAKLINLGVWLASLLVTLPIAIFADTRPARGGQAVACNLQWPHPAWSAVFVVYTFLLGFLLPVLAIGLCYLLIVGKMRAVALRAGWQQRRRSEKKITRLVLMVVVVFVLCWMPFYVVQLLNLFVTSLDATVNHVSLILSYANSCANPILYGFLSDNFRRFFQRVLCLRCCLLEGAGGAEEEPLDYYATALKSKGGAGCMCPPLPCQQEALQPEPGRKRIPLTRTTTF

| SMILES | affinity for the sstr3 receptor (sstr3 receptor) | affinity for the sstr2 receptor (sstr2 receptor) | affinity for the sstr1 receptor (sstr1 receptor) | affinity for the sstr4 receptor (sstr4 receptor) | half-life [1] [h] |
| --- | --- | --- | --- | --- | --- |
| C[C@@H](O)[C@@H]1NC(=O)[C@H](CCCCN)NC(=O)[C@@H](Cc2c[nH]c3ccccc23)NC(=O)[C@H](Cc2ccccc2)NC(=O)[C@@H](NC(=O)[C@H](N)Cc2ccccc2)CSSC[C@@H](C(=O)N[C@H](CO)[C@@H](C)O)NC1=O [octreotide] | moderate-low affinity | high affinity | do not bind | do not bind | – |
| Cc1cc(C)c(C[C@@H]2NC(=O)[C@H]([C@@H](C)O)NC(=O)[C@H](CCCCN)NC(=O)[C@@H](Cc3c[nH]c4ccccc34)NC(=O)[C@H](Cc3ccccc3)NC(=O)[C@H](Cc3ccccc3)NC(=O)[C@H](CC(N)=O)NC(=O)[C@H](CCCCN)NC(=O)[C@@H](NC(=O)CNC(=O)[C@H](C)N)CSSC[C@@H](C(=O)O)NC(=O)[C@H](CO)NC(=O)[C@H]([C@@H](C)O)NC2=O)c(C)c1 [Compound 26] | – | – | – | – | 41 |
| CC(C)[C@@H]1NC(=O)[C@H](CCCCN)NC(=O)[C@@H](Cc2c[nH]c3ccccc23)NC(=O)[C@H](Cc2ccc(O)cc2)NC(=O)[C@@H](NC(=O)[C@H](N)Cc2ccccc2)CSSC[C@@H](C(=O)N[C@@H](Cc2c[nH]c3ccccc23)C(N)=O)NC1=O [vapreotide] (H-[dF]CY[dW]KVCW-NH2; disulfide 2-7) | moderate-low affinity | high affinity | do not bind | do not bind | – |
| Cc1cc(C)c(C[C@@H]2NC(=O)[C@H](CC(N)=O)NC(=O)[C@H](CCCCN)NC(=O)[C@@H](NC(=O)CNC(=O)[C@H](C)N)CSSC[C@@H](C(=O)O)NC(=O)[C@H](CO)NC(=O)[C@H]([C@@H](C)O)NC(=O)[C@H](Cc3ccccc3)NC(=O)[C@H]([C@@H](C)O)NC(=O)[C@H](CCCCN)NC(=O)[C@@H](Cc3c[nH]c4ccccc34)NC(=O)[C@H](Cc3ccccc3)NC2=O)c(C)c1 [Compound 24] | – | – | – | – | 26.2 |
| Cc1cc(C)c(C[C@@H]2NC(=O)[C@H](CC(N)=O)NC(=O)[C@H](CCCCN)NC(=O)[C@@H](NC(=O)CNC(=O)[C@H](C)N)CSSC[C@@H](C(=O)O)NC(=O)[C@H](CO)NC(=O)[C@H]([C@@H](C)O)NC(=O)[C@H](Cc3c(C)cc(C)cc3C)NC(=O)[C@H]([C@@H](C)O)NC(=O)[C@H](CCCCN)NC(=O)[C@H](Cc3c[nH]c4ccccc34)NC(=O)[C@H](Cc3c(C)cc(C)cc3C)NC2=O)c(C)c1 [Compound 30] | – | – | – | – | 93.3 |
| NCCCC[C@@H]1NC(=O)[C@@H](Cc2c[nH]c3ccccc23)NC(=O)[C@H](c2ccccc2)NC(=O)[C@@H]2C[C@@H](OC(=O)NCCN)CN2C(=O)[C@H](Cc2ccccc2)NC(=O)[C@H](Cc2ccc(OCc3ccccc3)cc2)NC1=O [pasireotide] (cyclo([Hyp]([CO-Ethylenediamine])[Phg][dW]KY(Bn)F)) | – | an order of magnitude lower | – | lost | – |
| CC(C)[C@@H]1NC(=O)[C@H](CCCCN)NC(=O)[C@@H](Cc2c[nH]c3ccccc23)NC(=O)[C@H](Cc2ccc(O)cc2)NC(=O)[C@@H](NC(=O)[C@H](N)Cc2ccc3ccccc3c2)CSSC[C@@H](C(=O)N[C@H](C(N)=O)[C@@H](C)O)NC1=O [lanreotide] | moderate-low affinity | high affinity | do not bind | do not bind | – |
| Cc1cc(C)c(C[C@@H]2NC(=O)[C@H](Cc3ccccc3)NC(=O)[C@H](CC(N)=O)NC(=O)[C@H](CCCCN)NC(=O)[C@@H](NC(=O)CNC(=O)[C@H](C)N)CSSC[C@@H](C(=O)O)NC(=O)[C@H](CO)NC(=O)[C@H]([C@@H](C)O)NC(=O)[C@H](Cc3ccccc3)NC(=O)[C@H]([C@@H](C)O)NC(=O)[C@H](CCCCN)NC(=O)[C@@H](Cc3c[nH]c4ccccc34)NC2=O)c(C)c1 [Compound 25] | – | – | – | – | 24.6 |
| Cc1cc(C)c(C[C@@H]2NC(=O)[C@H](CC(N)=O)NC(=O)[C@H](CCCCN)NC(=O)[C@@H](NC(=O)CNC(=O)[C@H](C)N)CSSC[C@@H](C(=O)O)NC(=O)[C@H](CO)NC(=O)[C@H]([C@@H](C)O)NC(=O)[C@H](Cc3ccccc3)NC(=O)[C@H]([C@@H](C)O)NC(=O)[C@H](CCCCN)NC(=O)[C@H](Cc3c[nH]c4ccccc34)NC(=O)[C@H](Cc3c(C)cc(C)cc3C)NC2=O)c(C)c1 [Compound 27] | – | – | – | – | 43.9 |
| CCCCCCCCCCCCCCCC(=O)NCCCC[C@@H]1NC(=O)[C@@H](NC(=O)CNC(=O)[C@H](C)N)CSSC[C@@H](C(=O)O)NC(=O)[C@H](CO)NC(=O)[C@H]([C@@H](C)O)NC(=O)[C@H](Cc2ccccc2)NC(=O)[C@H]([C@@H](C)O)NC(=O)[C@H](CCCCN)NC(=O)[C@H](Cc2c[nH]c3ccccc23)NC(=O)[C@H](Cc2ccccc2)NC(=O)[C@H](Cc2ccccc2)NC(=O)[C@H](CC(N)=O)NC1=O [Compound 21] | – | – | – | – | 41.7 |
